According to patent US12358921B2, “Antiviral heterocyclic compounds” (priority 2022, dated 2025):
pEC50: −log10 of the molar value.

Experiments:
Type in all cases: cell-based
[1] = tested on: HUMAN RSV-A (“LONG” STRAIN); assay: RSV-A assay (CPE, ATPlite) in Hep-2 cells; conditions: human respiratory syncytial virus, 120 h, MOI 0.1, 5-day incubation
Method in brief: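 Protection from RSV cytopathic effect read by ATP luminescence (ATPlite) after 5-day culture. Genotype A "Long" virus added at MOI 0.1 to Hep-2 monolayers at 8,000 cells/well, pre-dosed with duplicate 2-fold compound dilutions; controls include infected untreated and uninfected wells. EC50 values binned into ranges.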

hMPV A2 TN/94-49 [2] = assay: HMPV antiviral assay Method 2 (LLC-MK2 cells with CP-100-356, ATP-Lite); conditions: hMPV A2 TN/94-49, LLC-MK2 cells, 4 μM CP-100-356, Method 2
Method in brief: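 The protective effect was measured after 7 days at 37 °C by ATP-Lite luminescence and expressed as % cell health relative to virus-only and cells-only wells, with EC50 from a four-parameter logistic. Cells were LLC-MK2 infected with strain A2 TN/94-49 (MOI 0.16) with final 2 μM CP-100-356 and 2 μg/mL TPCK-trypsin; 10 duplicate concentrations from 200 nM, 2.5-fold steps.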

hMPV A2 TN/94-49 [3] = assay: HMPV antiviral assay Method 1 (LLC-MK2 cells, ATP-Lite); conditions: hMPV A2 TN/94-49, LLC-MK2 cells
Method in brief: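 LLC-MK2 cells infected in suspension with hMPV A2 TN/94-49 at MOI 0.005, 5,000 cells/well, in serum-free OptiMEM with 2 μg/mL TPCK-trypsin (final) and CaCl2; compounds in duplicate, 10 points, 2 μM top, 2.5-fold dilutions. After 7 days at 37 °C, cell health by ATP-Lite luminescence; EC50 by four-parameter fit.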

| pEC50 [1] | pEC50 (hMPV A2 TN/94-49 [2]) | pEC50 (hMPV A2 TN/94-49 [3]) | SMILES |
| --- | --- | --- | --- |
| > 6.70 | > 6.70 | > 6.30 | COc1cc(C(=O)NC[C@@](O)(c2ccccc2)c2cc3c(c(-c4ccc(F)c(Cl)c4Cl)n2)OC[C@]3(C)C(N)=O)cc2cc(C)nnc12 [Example 289] |
| > 6.70 | > 6.70 | > 6.30 | C[C@]1(C(N)=O)COc2c1cc([C@@](O)(CNC(=O)c1cc(OC3CC3)n3nc(C4CC4)cc3c1)C1CC1)nc2-c1cc(Cl)c(F)cc1F [Example 4] |
| > 6.70 | > 6.70 | > 6.30 | COc1cc(C(=O)NC[C@@](O)(c2cccc(F)c2)c2cc3c(c(-c4ccc5c(c4Cl)OC(F)(F)O5)n2)OC[C@]3(C)C(N)=O)cc2cn(C3(F)CC3)nc12 [Example 275] |
| > 6.70 | > 6.70 | > 6.30 | COc1cc(C(=O)NC[C@@](O)(c2ccccc2)c2cc3c(c(-c4cc(Cl)c(F)cc4F)n2)OC[C@]3(C)C(N)=O)cc2cc(C)nnc12 [Example 89] |
| – | > 6.70 | > 6.30 | COc1cc(C(=O)NC[C@@](O)(c2ccccc2)c2cc3c(c(-c4cc(Cl)c(F)cc4F)n2)OC[C@]3(C)C(N)=O)cc2oc(C3CC3)nc12 [Example 85] |
| > 6.70 | – | > 6.30 | COc1cc(C(=O)NC[C@@](O)(c2ccc(F)cc2)c2cc3c(c(-c4cc(Cl)c(F)cc4F)n2)OC[C@]3(C)C(N)=O)cc2cn(C(F)F)nc12 [Example 13] |
| > 6.70 | – | > 6.30 | [2H]C([2H])([2H])c1nc2ccc(C(=O)NC[C@@](O)(c3ccccc3)c3cc4c(c(-c5cc(Cl)c(F)cc5F)n3)OC[C@]4(C)C(N)=O)cc2o1 [Example 87] |
| > 6.70 | – | > 6.30 | COc1cc(C(=O)NCC(O)(c2csc(Cl)c2)c2cc3c(c(-c4cc(Cl)c(F)cc4F)n2)OC[C@]3(C)C(N)=O)cc2cn(C3CC3)nc12 (stereo partly shown) [Example 471] |
| > 6.70 | – | > 6.30 | [2H]c1nc2c(OC(F)F)cc(C(=O)NC[C@@](O)(c3ccccc3)c3cc4c(c(-c5cc(Cl)c(F)cc5F)n3)OC[C@]4(C)C(N)=O)cc2cc1C([2H])([2H])[2H] [Example 217] |
| > 6.70 | – | > 6.30 | COc1cc(C(=O)NC[C@@](O)(c2ccccc2)c2cc3c(c(-c4cc(C(F)F)c(F)cc4F)n2)OC[C@]3(C)C(N)=O)cc2cn(C3CC3)nc12 [Example 288] |
| > 6.70 | – | > 6.30 | COc1cc(C(=O)NC[C@](O)(c2cc3c(c(-c4cc(Cl)c(F)cc4F)n2)OC[C@]3(C)C(N)=O)c2ccccc2F)cc2cn(C(F)F)nc12 [Example 138] |
| > 6.70 | – | < 6.30 | COc1cc(C(=O)NC[C@@](O)(c2ccc(F)cc2)c2cc3c(c(-c4ccc5c(c4Cl)OC(F)(F)O5)n2)OC[C@]3(C)C(N)=O)cc2cc(C(F)(F)F)cnc12 [Example 26] |
| > 6.70 | – | > 6.30 | [2H]C([2H])([2H])c1cc2cc(C(=O)NC[C@](O)(c3cc4c(c(-c5cc(F)c(F)cc5F)n3)OC[C@]4(C)C(N)=O)C3CC3)cc(OC)c2nc1C([2H])([2H])[2H] [Example 28] |
| > 6.70 | – | < 6.30 | COc1cc(C(=O)NC[C@@](O)(c2cc3c(c(-c4cc(F)c(F)c(F)c4Cl)n2)OC[C@]3(C)C(N)=O)C(F)(F)F)cc2cn(C3CC3)nc12 [Example 58] |
| > 6.70 | – | > 6.30 | [2H]C([2H])([2H])c1nc2c(OC)cc(C(=O)NC[C@](O)(c3cc4c(c(-c5ccc(F)c(Cl)c5Cl)n3)OC[C@]4(C)C(N)=O)C3CC3)cc2cc1Br [Example 24] |
| > 6.70 | – | > 6.30 | Cc1nc2ccc(C(=O)NC[C@@](O)(c3ccccc3)c3cc4c(c(-c5ccc(F)c(Cl)c5Cl)n3)OC[C@]4(C)C(N)=O)cc2o1 [Example 267] |
| > 6.70 | – | > 6.30 | C[C@]1(C(N)=O)COc2c1cc([C@@](O)(CNC(=O)c1cc(Cl)c3nn(C4CC4)cc3c1)C1CC1)nc2-c1ccc2c(c1Cl)OC(F)(F)O2 [Example 35] |
| > 6.70 | – | > 6.30 | COc1cc(C(=O)NC[C@@](O)(c2cccc(F)c2)c2cc3c(c(-c4ccc(F)c(Cl)c4Cl)n2)OC[C@]3(C)C(N)=O)cc2oc(C)nc12 [Example 279] |
